Measured values: patent US20240376119A1, “SPIRO COMPOUND AND USE THEREOF” (CSPC Zhongqi Pharmaceutical Technology (Shijiazhuang) Co., …, priority 2021, published 2024)

Target: SHP2 (Homo sapiens (Human), UniProt Q06124)
Assay: Assay for the inhibitory effect on the SHP2 enzyme (DiFMUP substrate, fluorescence)
Type: biochemical
Conditions: SHP2 activated with SHP-2 activated peptide; DiFMUP 10 μM; read-out: Enzymatic Effect (IC50 on SHP2)
Protocol: 1× Assay buffer was prepared. A compound to be tested was diluted with DMSO solvent to a stock concentration of 10 mM. The compound to be tested was first diluted to an intermediate concentration of 1000 μM and then further diluted in a 3-fold gradient using DMSO. Therefore, the intermediate gradient dilution concentration of the compound to be tested was: 1000 μM, 3-fold dilution, 11 gradients. 100 nL of each concentration of the compound in the 384-well LDV echo plate was transferred to a new 384-well ELISA plate (assay plate) (corning, Cat #4514) by the Echo550 instrument. The final concentration of the compound to be tested was 10 μM, 3-fold dilution, 11 gradients in duplicate after 10 μL of the reaction reagent was added. The final DMSO concentration was 1%. For both negative and positive control wells, 100 nL DMSO would be transferred.
A mixed liquor of 2× working SHP2 reagent (0.4 nM) and 0.5 μM SHP-2 activated peptide (BPS bioscience #79319-2) was prepared with 1× enzyme buffer. After the above-mixed liquor was incubated at 25° C. for 60 minutes, 5 μL of activated SHP2 kinase solution was transferred with a pipettor to the compound wells and the Max control wells (Corning, #4514) of the plate. Then 5 μL of 1× kinase buffer was transferred to the Min control wells. The plate was centrifuged at 1000 rpm for 30 seconds, sealed, and incubated in a 25° C. constant-temperature incubator for 30 minutes. A substrate solution of DiFMUP (#D6567, Invitrogen™) was prepared with 1× kinase buffer, and its concentration should be 2 times as the final concentration of the assay (DiFMUP final concentration: 10 μM). 5 μL of the prepared substrate solution was transferred with an electric pipettor into each well of the ELISA plate to start the reaction. The plate was centrifuged at 1000 rpm for 30 seconds, sealed, and incubated in a 25° C. constant-temperature incubator for 60 minutes. Read the plate at the excitation/emission wavelength of 358/455 nm after the ELISA plate was placed on the Spark machine.
The RLU values were collected from Spark and the inhibition rate was calculated with the RLU values. Inhibition rate=(maximum value-sample RLU)/(maximum value-minimum value)*100. “Minimum value” was referred to the RLU of the enzyme-free control, and “maximum value” was referred to the RLU of the DMSO control. The data were fit by using the XLFit Excel module (version 5.4.0.8) to obtain IC50 values, and the results are shown in Table 1.

SHP2, sequence (Q06124 whole entry): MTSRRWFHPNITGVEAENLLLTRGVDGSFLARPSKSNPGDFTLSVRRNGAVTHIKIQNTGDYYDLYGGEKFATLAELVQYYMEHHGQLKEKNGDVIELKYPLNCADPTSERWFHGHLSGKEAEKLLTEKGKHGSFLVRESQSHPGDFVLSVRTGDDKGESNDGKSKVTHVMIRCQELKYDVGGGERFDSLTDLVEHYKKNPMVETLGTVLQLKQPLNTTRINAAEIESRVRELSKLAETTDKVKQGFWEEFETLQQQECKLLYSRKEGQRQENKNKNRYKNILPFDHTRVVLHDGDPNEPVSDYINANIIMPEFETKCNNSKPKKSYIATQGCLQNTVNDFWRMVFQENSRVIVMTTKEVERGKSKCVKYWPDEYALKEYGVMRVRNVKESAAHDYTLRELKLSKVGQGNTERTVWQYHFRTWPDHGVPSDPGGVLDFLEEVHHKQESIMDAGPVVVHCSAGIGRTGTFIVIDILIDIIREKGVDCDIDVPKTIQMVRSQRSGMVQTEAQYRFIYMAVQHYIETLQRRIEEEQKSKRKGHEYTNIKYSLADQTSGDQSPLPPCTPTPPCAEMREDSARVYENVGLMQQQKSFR

For `[2H][C@@]1(N)c2ccccc2OC12CCN(c1nc(N)c(Sc3ccnc(N)c3Cl)nc1C(C)=O)CC2` [Compound 56, (R)-1-(5-amino-6-((2-amino-3-chloropyridine-4-yl)sulfanyl)-3-(3-amino-3-deuterium-spiro[benzofuran-2,4′-piperidine]-1′-yl)pyrazine-2-yl)ethanone], the IC50 was at most 20 nM.
